The record followed here is patent publication US7851436B2, “Inhibition of migration and induction of cell death by the type II collagen amino propeptides” (Washington University, priority 2007, dated 2010).

In assay [1] the test system is Ch-1 cell adhesion to PIIBNP. The assay can be described thus: Inhibition of Ch-1 cell adhesion to PIIBNP by synthetic blocking peptides and integrin antibodies. The format is cell-based, human. The procedure:
(§1) Cell Adhesion Assay. Cell adhesion assays were performed using a spectrometric method. A 96-well plate was coated at 4° C. overnight with recombinant proteins. Wells were washed three times with RPMI-1640 medium containing 10% FBS. Ch-1 cells were harvested with limited trypsin digestion and plated at 5×10^4 cells per well in RPMI-1640 medium supplemented with 10% FBS for an hours. Proteins were added and incubation continued for 1 hour. The wells were washed three times with pre-warmed PBS to remove non-adherent cells. The adherent cells were fixed with 4% paraformaldehyde in PBS for 10 minutes at room temperature and stained with 0.5% toluidine blue for 5 minutes. The wells were rinsed with water and cells were solubilized with 0.1% SDS. Absorbance at 595 nm was recorded on a SpectraMax plate reader. Synthetic blocking peptides and antibodies to αVβ3 and αVβ5 integrin were pre-incubated with cells for 15 to 30 mins before they were added onto the wells in the inhibition assays.
Antibodies. Monoclonal antibodies used for blocking experiments were: mouse anti αVβ3 and αVβ5 integrins (Chemicon). Polyclonal antibodies for immunohistochemistry and western blotting were rabbit anti human αV, α2, α3, α5, β1, β3, β5 integrin, goat anti human actin (Santa Cruz), mouse anti exon 2, rabbit anti GSTexon 2, and chicken anti PIIBNP (antiserum made in our lab).

Assay [2] has as its target T1, αVβ3 integrin (Homo sapiens, UniProt P05106+P06756).
T1 construct: Ch-1 membrane proteins were labeled with biotin, and PIIBNP was used to isolate the integrin molecules; endogenous in cells; host or cells: Ch-1 human chondrosarcoma cells (surface-biotinylated, lysed)
The assay can be described thus: Cell surface labeling and GST pull-down with immunoblotting. As to conditions: biotin-labeled Ch-1 membrane proteins, Western blot. The format is binding. How it is done:
(§2) Immunoblotting. Western blotting was performed as described (7). Blots were probed with the following primary antibodies: rabbit anti αV, α2, α3, α5, β1, β3, β5 integrin and goat anti actin (Saint Cruz), chicken anti PIIBNP antiserum, and mouse anti exon 2 antiserum.
(§3) Cell Surface labeling and GST Pull-down Assay. Ch-1 cells were incubated with EZ-link Sulfo-NHS-Biotin reagent for 30 mins. according to the product instruction (Sigma). After 3 washes with 0.1 M glycine in PBS, the cells were lysed with a lysis buffer described above. The lysate was incubated with glutathione derivatized agarose beads previously bound with GST, PIIANP, PIIBNP or mPIIBNP for 1 hr. at RT. […] The membrane was washed and incubated with antibodies and then incubated with a secondary antibody coupled to horseradish peroxidase. The antibody complex was visualized by enhanced chemiluminescence.

The target of assay [3] is T2, αVβ5 integrin (Homo sapiens, UniProt P06756+P18084).
T2 construct: Ch-1 membrane proteins were labeled with biotin, and PIIBNP was used to isolate the integrin molecules; endogenous in cells; host or cells: Ch-1 human chondrosarcoma cells (surface-biotinylated, lysed)
T2 sequence (P06756 31-889 limits assumed): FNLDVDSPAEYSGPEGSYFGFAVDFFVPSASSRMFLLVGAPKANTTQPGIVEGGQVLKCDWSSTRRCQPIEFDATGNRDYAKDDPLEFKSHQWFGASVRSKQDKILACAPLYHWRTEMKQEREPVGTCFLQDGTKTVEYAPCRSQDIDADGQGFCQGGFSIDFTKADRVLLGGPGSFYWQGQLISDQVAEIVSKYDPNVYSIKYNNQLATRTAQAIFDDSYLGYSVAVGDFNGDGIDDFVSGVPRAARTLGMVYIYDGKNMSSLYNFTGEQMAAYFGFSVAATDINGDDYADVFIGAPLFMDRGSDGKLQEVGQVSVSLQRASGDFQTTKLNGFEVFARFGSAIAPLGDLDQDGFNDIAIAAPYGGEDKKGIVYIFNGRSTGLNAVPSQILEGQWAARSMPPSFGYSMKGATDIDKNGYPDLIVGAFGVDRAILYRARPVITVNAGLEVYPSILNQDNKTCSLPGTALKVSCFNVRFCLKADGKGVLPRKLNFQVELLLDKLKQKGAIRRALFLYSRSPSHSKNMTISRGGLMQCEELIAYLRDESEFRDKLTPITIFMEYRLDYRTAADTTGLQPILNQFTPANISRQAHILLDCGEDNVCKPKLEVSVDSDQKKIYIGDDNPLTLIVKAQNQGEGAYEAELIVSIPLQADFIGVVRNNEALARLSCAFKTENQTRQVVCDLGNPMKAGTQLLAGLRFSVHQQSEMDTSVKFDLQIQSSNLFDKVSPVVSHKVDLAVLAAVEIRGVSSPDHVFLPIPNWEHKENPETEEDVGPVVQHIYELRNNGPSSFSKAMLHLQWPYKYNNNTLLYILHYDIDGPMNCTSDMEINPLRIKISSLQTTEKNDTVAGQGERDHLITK
T2 sequence (P06756 891-1048 limits assumed): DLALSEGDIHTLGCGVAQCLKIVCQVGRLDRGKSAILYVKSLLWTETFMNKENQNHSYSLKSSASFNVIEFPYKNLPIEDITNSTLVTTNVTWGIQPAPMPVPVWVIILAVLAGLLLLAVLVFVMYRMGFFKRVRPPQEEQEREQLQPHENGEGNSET
T2 sequence (P18084 24-799): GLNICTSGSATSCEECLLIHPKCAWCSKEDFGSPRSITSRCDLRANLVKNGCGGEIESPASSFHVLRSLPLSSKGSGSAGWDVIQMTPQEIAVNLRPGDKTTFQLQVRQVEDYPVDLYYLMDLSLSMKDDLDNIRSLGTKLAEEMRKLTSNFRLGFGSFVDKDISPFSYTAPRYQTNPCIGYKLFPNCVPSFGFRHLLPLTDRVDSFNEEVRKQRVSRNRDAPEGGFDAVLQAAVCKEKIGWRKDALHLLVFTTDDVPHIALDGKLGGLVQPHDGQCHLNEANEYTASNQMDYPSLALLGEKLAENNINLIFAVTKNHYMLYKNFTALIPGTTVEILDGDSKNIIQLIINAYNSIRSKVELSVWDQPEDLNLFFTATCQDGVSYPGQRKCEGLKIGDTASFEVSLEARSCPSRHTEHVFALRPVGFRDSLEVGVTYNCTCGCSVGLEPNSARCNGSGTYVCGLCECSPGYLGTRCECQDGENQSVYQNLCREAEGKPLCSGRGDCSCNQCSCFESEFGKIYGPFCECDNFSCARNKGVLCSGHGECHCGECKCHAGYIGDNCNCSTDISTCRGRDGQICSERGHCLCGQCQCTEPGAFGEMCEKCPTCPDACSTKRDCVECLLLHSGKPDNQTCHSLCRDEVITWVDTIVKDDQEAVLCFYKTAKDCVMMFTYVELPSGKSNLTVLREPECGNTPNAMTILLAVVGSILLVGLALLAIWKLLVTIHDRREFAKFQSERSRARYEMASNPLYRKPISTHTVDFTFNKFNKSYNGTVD
The assay is described as above. The format is binding. Particulars: biotin-labeled Ch-1 membrane proteins, Western blot. The procedure:
as §2, §3
For orientation: A western blot detects proteins with antibodies after separation by electrophoresis.

Assay [4] has as its system Ch-1 cells. The experiment in a line: Detection of cell death in Ch-1 cells. Particulars: 0.8 μM, serum free medium, 24 hrs; type I collagen, fibronectin or Matrigel coated plates. The format is cell-based, human. How it is done: Cell Culture. Human Chondrosarcoma cell line (Ch-1) was isolated from a portion of chondrosarcoma tumor. The Ch-1 cell line was maintained in RPMI-1640 supplemented with 10% FBS and at 37° C. in a humidified, 5% CO2 atmosphere. Human chondrocytes were obtained from Dr. Davis Adkisson (ISTO Technologies, St. Louis) or isolated from macroscopically intact tissue obtained from total joint arthroplasty as described (Bassleer et al., 1998). HeLa 229 cells and MDA-MB 231 cell lines were provided by Dr. Kathy Weilbaecher (Washington University) and were cultured in RPMI medium supplemented with 10% FBS. HUVEC cells were a gift from Dr. William Frazier (Washington University) and were cultured in M199 Earle's medium with 10 units/ml of penicillin, 5 μg/ml streptomycin and 0.25 μg/ml Fungizone supplemented with 10% FBS, 0.1 mg/ml L-glutamine, 25 mM Hepes, 16 units/ml of heparin (Sigma) and 0.1 mg/ml endothelial cell mitogen (Biochemical Technologies).
Detection of Cell Death. Cells were cultured to confluence in a 24-well plate pre-coated with type I collagen, fibronectin (Sigma), and ECM Matrigel (Becton Dickinson). Proteins in serum-free medium were added to the cells. Cells were monitored by light microscopy and images were digitally photographed using a Q capture Retiga 2000R camera. Quantification of cells remaining in the well was performed by washing with PBS for three times, fixing with 4% paraformaldehyde. The cells per field (×400) were counted for three field per well (3 wells per measurement). The mean number and standard deviation (SD) were calculated.

Assay [5] has as its system HUVEC cells. The experiment in a line: HUVEC cell death. The format is cell-based, human. As to conditions: 60 hrs, 37° C.; higher concentrations. The procedure: FIG. 6 depicts photographs and graphs showing that PIIBNP inhibits angiogenesis. […] Quantification of tube formation was calculated based on branch points per field of view (FIG. 6C) for each treatment ranging from 0.1 μM to 10 μM of PIIBNP. […] GST (▴) and PIIANP (●) had no effect on the cells.
As a second test for angiogenesis, we tested the ability of PIIBNP to inhibit outgrowth of endogenous endothelial cells from freshly isolated rat aorta. […] In order to determine whether PIIBNP caused endothelial cell death, the number of HUVEC cells present after incubation with PIIBNP was determined (FIGS. 6E and 8). Tube formation was inhibited by 50% with 0.1 μM PIIBNP, with no cell death. […] Consequently, PIIBNP can inhibit angiogenesis in a cell line and in endogenous endothelial cells mediated by integrins αVβ3 and αVβ5.

Assay [6] has as its system Ch-1 cells. The experiment in a line: Cell adhesion assay (Ch-1 cells on wells coated with recombinant proteins). The format is cell-based, human. Particulars: wells coated with recombinant protein. The procedure: as §1
Cell Culture. Human Chondrosarcoma cell line (Ch-1) was isolated from a portion of chondrosarcoma tumor (Chansky et al., J Orthop Res. (1998) 16(5):521-30). The Ch-1 cell line was maintained in RPMI-1640 supplemented with 10% FBS and at 37° C. in a humidified, 5% CO2 atmosphere.

T1 sequence (P06756 31-889 limits assumed): as the sequence (P06756 31-889 limits assumed) above
T1 sequence (P06756 891-1048 limits assumed): as the sequence (P06756 891-1048 limits assumed) above
T1 sequence (P05106 27-788): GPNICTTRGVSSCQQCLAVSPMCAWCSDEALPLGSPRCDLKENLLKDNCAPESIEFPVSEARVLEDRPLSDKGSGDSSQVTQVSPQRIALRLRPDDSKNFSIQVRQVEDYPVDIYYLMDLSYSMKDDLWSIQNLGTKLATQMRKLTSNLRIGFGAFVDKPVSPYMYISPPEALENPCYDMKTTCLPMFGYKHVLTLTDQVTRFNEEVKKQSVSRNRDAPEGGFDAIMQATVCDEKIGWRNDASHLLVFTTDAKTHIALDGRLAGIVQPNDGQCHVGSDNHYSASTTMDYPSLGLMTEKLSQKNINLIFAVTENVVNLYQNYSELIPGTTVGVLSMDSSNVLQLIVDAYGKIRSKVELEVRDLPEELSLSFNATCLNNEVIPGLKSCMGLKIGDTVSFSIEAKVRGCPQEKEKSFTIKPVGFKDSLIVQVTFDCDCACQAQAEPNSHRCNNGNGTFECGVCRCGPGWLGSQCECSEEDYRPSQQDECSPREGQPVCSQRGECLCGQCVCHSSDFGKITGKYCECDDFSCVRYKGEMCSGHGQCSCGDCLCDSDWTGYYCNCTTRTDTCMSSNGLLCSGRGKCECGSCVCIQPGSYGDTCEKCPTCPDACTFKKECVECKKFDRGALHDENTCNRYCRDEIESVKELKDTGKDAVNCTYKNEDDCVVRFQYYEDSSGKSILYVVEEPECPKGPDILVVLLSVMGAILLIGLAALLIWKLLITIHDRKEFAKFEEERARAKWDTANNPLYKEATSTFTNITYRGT

The substance GRADNP (listed as Homo sapiens) returned an inhibition of adhesion in assay [1] (at 60 μM) of approximately 50%.
Consider GRGDNP (listed as Homo sapiens), for which, in assay [1] (at 10 μM), the inhibition of adhesion is on record as 50%. The “compete and inhibit adhesion” value in assay [1] (synthetic peptides pre-incubated with cells) was “compete and inhibit adhesion”.
For “GST: Recombinant GST alone, control protein for the GST fusion proteins [reference compound]”, the “binding to integrin αVβ3” value in assay [2] was “does not”. Further, the “binding to integrin αVβ5” value in assay [3] is given as “does not”. Further, the “induction of cell death in Ch-1 cells” value in assay [4] was “did not induce cell death”. In assay [5], the HUVEC cell death result is reported as “no effect”.
On to “PIIBNPn: PIIBNP obtained by cleavage of GST from a GST-PIIBNP fusion protein with thrombin beads”, for which the “adhesion to Ch-1 cells” value in assay [6] is recorded as “strong binding”.
